# Source: patent publication US10842793B2, “Inhibitors of the unconventional secretion of fibroblast growth factor 2 (FGF2) by tumor cells and uses thereof” (Universität Heidelberg, priority 2016, dated 2020)
# Legend:
# [1] = molecular target: T1, GST-NΔ173 Tec (auto-phosphorylation) (Homo sapiens, UniProt P42680); assay: In vitro Tec kinase auto-phosphorylation; type: biochemical; conditions: 50 μM compound; for effect on NΔ173 Tec auto-phosphorylation in the presence of STAP1: STAP1 present; for inhibition of Tec auto-phosphorylation in the absence of a substrate: no FGF2, FIGS. 7B and 7E
# T1 construct: made in house; host or cells: SF9 insect cells (baculovirus)
# T1 sequence (P42680 174-631, stated change not applied): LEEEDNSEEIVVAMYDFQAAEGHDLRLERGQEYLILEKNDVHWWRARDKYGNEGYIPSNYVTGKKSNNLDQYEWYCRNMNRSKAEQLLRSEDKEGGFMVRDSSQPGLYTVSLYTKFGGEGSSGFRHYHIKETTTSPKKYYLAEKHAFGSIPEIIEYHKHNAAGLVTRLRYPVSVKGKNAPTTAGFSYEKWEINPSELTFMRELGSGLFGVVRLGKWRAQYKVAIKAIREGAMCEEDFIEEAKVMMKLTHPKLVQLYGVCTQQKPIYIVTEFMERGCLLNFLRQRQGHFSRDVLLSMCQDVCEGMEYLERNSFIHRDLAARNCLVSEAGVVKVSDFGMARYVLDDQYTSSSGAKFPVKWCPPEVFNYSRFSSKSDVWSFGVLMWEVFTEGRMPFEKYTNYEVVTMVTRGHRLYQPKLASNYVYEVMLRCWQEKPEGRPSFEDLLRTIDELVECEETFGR
# Procedure: FGF2 tyrosine phosphorylation and Tec kinase auto-phosphorylation were reconstituted with purified components based on a Western analysis using anti-phosphotyrosine antibodies directed against an FGF2-derived phosphopeptide. In vitro phosphorylation experiments were conducted in the absence (1% DMSO mock control) and presence of the small molecule inhibitors (#6, #14, #21; 50 μM in 1% DMSO) and control compounds (#18, #19; 50 μM in 1% DMSO) introduced in FIGS. 4 and 5. Fluorescent secondary antibodies were used to detect antigens employing the LI-COR Odyssey imaging platform. M=PageRuler Prestained Protein Ladder. For details, see Experimental Procedures.
# (§1) FGF2 and STAP1 tyrosine phosphorylation as well as Tec kinase auto-phosphorylation were analyzed as described in the legend to FIG. 6 and in Experimental Procedures. In vitro phosphorylation experiments were conducted in the absence (1% DMSO mock control) and presence of the small molecule inhibitors (#6, #14, #21; 50 μM in 1% DMSO) and control compounds (#18, #19; 50 μM in 1% DMSO) introduced in FIGS. 4 and 5. A Western analysis was conducted using anti-phosphotyrosine antibodies (anti-pY-FGF2 for FGF2 and Tec as well as anti-pY-4G10 for STAP1). M=PageRuler Prestained Protein Ladder: 140, 115, 80, 65, 50, 40, 30, 25, 15, 10 kDa. Fluorescent secondary antibodies were used to detect and quantify antigens using the LI-COR Odyssey imaging platform. In panels D, E and F, following normalization based upon background signals detected in the absence of Tec kinase or ATP, the average of the signals detected under mock conditions was defined as 100% activity. Standard deviations are shown. A one-tailed and unpaired T-test was conducted to assess statistical significance (* p<0.05, ** p<0.01, *** p<0.001, **** p<0.0001). “NS” indicates absence of significant differences.
# A Tec kinase in vitro phosphorylation assay was established to test the inhibitory potential and selectivity of the small molecule inhibitors reported in this study (FIGS. 6 and 7). Tyrosine phosphorylation of FGF2 and STAP1, another established substrate of Tec kinase, was tested in a final volume of 100 μl (60 mM Hepes pH 7.5, 3 mM MgCl2, 20 μM ATP, 3 μM Sodium orthovanadate, 1.2 mM DTT, 50 ng/μl PEG 20000, 0.05% w/v Tween 20, 0.001% BSA). GST-NΔ173Tec (60 nM) was incubated in the absence (1% DMSO mock control) or presence of each compound (50 μM in 1% DMSO). Where indicated, reactions contained 250 nM of either FGF2 or 250 nM STAP1 (Hölzel Diagnostika, # GWB-P0486E-100). Following incubation at 30° C. for 45 minutes (corresponding to the midpoint of linear product formation), the reaction was terminated using SDS sample buffer and boiling for 4 minutes at 95° C. […] Phosphorylation levels of GST-NΔ173 Tec (auto-phosphorylation), FGF2 and STAP1 were quantified by a Western analysis using polyclonal anti-phosphotyrosine antibodies raised against a FGF2-derived synthetic peptide containing a phosphorylated tyrosine residue (ANRpYLAMKED; SEQ ID NO: 1). […] Phosphorylation levels of STAP1 were monitored using a monoclonal anti-phosphotyrosine antibody (clone 4G10®, #05-321, Merck Millipore). Appropriate fluorescent secondary antibodies (goat anti-rabbit IgG conjugated with Alexa Fluor® 680, # A-21076, Life Technologies; goat anti-mouse IgG conjugated with Alexa Fluor® 680, # A-21057, Life Technologies) were used to quantify all antigens employing the LI-COR Odyssey infrared imaging platform. […]
# [2] = molecular target: T2, Tec kinase mediated tyrosine phosphorylation of STAP1 (Homo sapiens, UniProt P42680); assay: In vitro Tec kinase mediated tyrosine phosphorylation of STAP1; type: biochemical; conditions: 50 μM compound; FIGS. 7C and F
# T2 construct: made in house; host or cells: Tec: SF9 insect cells (baculovirus); STAP1 purchased (Hölzel Diagnostika, Cat. # GWB-P0486E-100)
# T2 sequence (P42680 174-631): as the sequence (P42680 174-631, stated change not applied) above
# Procedure: as §1
# A Tec kinase in vitro phosphorylation assay was established to test the inhibitory potential and selectivity of the small molecule inhibitors reported in this study (FIGS. 6 and 7). […] Phosphorylation levels of GST-NΔ173 Tec (auto-phosphorylation), FGF2 and STAP1 were quantified by a Western analysis using polyclonal anti-phosphotyrosine antibodies raised against a FGF2-derived synthetic peptide containing a phosphorylated tyrosine residue (ANRpYLAMKED; SEQ ID NO: 1). […] Phosphorylation levels of STAP1 were monitored using a monoclonal anti-phosphotyrosine antibody (clone 4G10®, #05-321, Merck Millipore). Appropriate fluorescent secondary antibodies (goat anti-rabbit IgG conjugated with Alexa Fluor® 680, # A-21076, Life Technologies; goat anti-mouse IgG conjugated with Alexa Fluor® 680, # A-21057, Life Technologies) were used to quantify all antigens employing the LI-COR Odyssey infrared imaging platform. […]
inhibition of Tec auto-phosphorylation in the absence of a substrate [1],Structure (SMILES),effect on NΔ173 Tec auto-phosphorylation in the presence of STAP1 [1],effect on tyrosine phosphorylation of STAP1 [2]
particularly evident,COC(=O)c1c(C)[nH]c(C(=O)OCc2cc(=O)n3c(C)cccc3n2)c1C [compound #6],neither auto-phosphorylation of NΔ173 Tec nor tyrosine phosphorylation of STAP1 is affected,neither auto-phosphorylation of NΔ173 Tec nor tyrosine phosphorylation of STAP1 is affected
,CC(=O)c1c(C)[nH]c(C(=O)OCc2cc(=O)n3cc(Br)ccc3n2)c1C [compound #14],neither auto-phosphorylation of NΔ173 Tec nor tyrosine phosphorylation of STAP1 is affected,neither auto-phosphorylation of NΔ173 Tec nor tyrosine phosphorylation of STAP1 is affected
particularly evident,CC(=O)c1c(C)[nH]c(C(=O)CSc2nc3cc(Cl)cnc3[nH]2)c1C [compound #21],neither auto-phosphorylation of NΔ173 Tec nor tyrosine phosphorylation of STAP1 is affected,neither auto-phosphorylation of NΔ173 Tec nor tyrosine phosphorylation of STAP1 is affected
